Key:
Assay type in all cases: in vivo
[1] = system: foxtail, green (green foxtail, Setaria viridis); experiment: Test D pre-/postemergence: foxtail, green
Excerpt: (§1) Seeds of plant species selected from bluegrass (annual bluegrass, Poa annua), blackgrass (Alopecurus myosuroides), canarygrass (Phalaris minor), chickweed (common chickweed, Stellaria media), galium (catchweed bedstraw, Galium aparine), bromegrass, downy (downy bromegrass, Bromus tectorum), field poppy (Papaver rhoeas), field violet (Viola arvensis), foxtail, green (green foxtail, Setaria viridis), deadnettle (henbit deadnettle, Lamium amplexicaule), ryegrass, Italian (Italian ryegrass, Lolium multiflorum), kochia (Kochia scoparia), lambsquarters (Chenopodium album), oilseed rape (Brassica napus), pigweed (Amaranthus retroflexus), Russian thistle (Salsola iberica), chamomile (scentless chamomile, Matricaria inodora), speedwell (bird's-eye speedwell, Veronica persica), barley, spring (spring barley, Hordeum vulgare), wheat, spring (spring wheat, Triticum aestivum), buckwheat, wild (wild buckwheat, Polygonum convolvulus), mustard, wild (wild mustard, Sinapis arvensis), oat, wild (wild oat, Avena fatua), radish, wild (wild radish, Raphanus raphanistrum), windgrass (Apera spica-venti), barley, winter (winter barley, Hordeum vulgare), and wheat, winter (winter wheat, Triticum aestivum) were planted into a silt loam soil and treated preemergence with test chemicals formulated in a non-phytotoxic solvent mixture which included a surfactant. At the same time, these same crop and weed species were planted in pots containing the planting medium comprising spaghnum peat moss, vermiculite, wetting agent and starter nutrients and treated with postemergence applications of the test chemicals formulated in the same manner. Plants ranged in height from 2 to 18 cm (1- to 4-leaf stage).
(§2) Treated plants and controls were maintained in a controlled growth environment for 14 to 21 days after which time all species were compared to controls and visually evaluated. Plant response ratings, summarized in Table D, are based on a scale of 0 to 100 where 0 is no effect and 100 is complete control. A dash (-) response means no test result.

[2] = system: oilseed rape (Brassica napus); experiment: Test D pre-/postemergence: oilseed rape
Summary of the method: (§3)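 Pre- and postemergence herbicide screen. Soil for pre: silt loam; post medium: peat moss, vermiculite, wetting agent, starter nutrients. Plant stage at post: 1- to 4-leaf. Readout: visual % control, 14–21 days.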

[3] = system: galium (catchweed bedstraw, Galium aparine); experiment: Test D pre-/postemergence: galium
Summary of the method: as §3

[4] = system: pigweed (Amaranthus retroflexus); experiment: Test D pre-/postemergence: pigweed
Excerpt: as §1, §2

[5] = system: barnyardgrass (Echinochloa crus-galli); experiment: Test C flooded paddy test: barnyardgrass; details: scale 0 to 100 (0 no effect, 100 complete control)
Summary of the method: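 Plants were grown to the 2-leaf stage, pots flooded to 3 cm above soil, and test compounds applied directly to the paddy water, with that depth held throughout. After 13 to 15 days in a greenhouse, injury was visually rated against controls on a 0 (no effect) to 100 (complete control) scale.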

[6] = system: barnyardgrass (Echinochloa crus-galli); experiment: Test F pre-/postemergence: barnyardgrass; details: Preemergence
Excerpt: (§4) Seeds of plant species selected from corn (Zea mays), soybean (Glycine max), velvetleaf (Abutilon theophrasti), lambsquarters (Chenopodium album), poinsettia, wild (wild poinsettia, Euphorbia heterophylla), pigweed, palmer (palmer pigweed, Amaranthus palmeri), waterhemp (common waterhemp, Amaranthus rudis), surinam grass (Brachiaria decumbens), crabgrass, Brazil (Brazilian crabgrass, Digitaria horizontalis), panicum, fall (fall panicum Panicum dichotomiflorum), crabgrass, large (large crabgrass, Digitaria sanguinalis), foxtail, giant (giant foxtail, Setaria faberii), foxtail, green (green foxtail Setaria viridis), goosegrass (Eleusine indica), ragweed (common ragweed, Ambrosia elatior), barnyardgrass (Echinochloa crus-galli), sandbur (southern sandbur, Cenchrus echinatus), arrowleaf sida (Sida rhombifolia), ryegrass, Italian (Italian ryegrass, Lolium multiflorum), dayflower, VA (Virginia (VA) dayflower, Commelina virginica), field bindweed (Convolvulus arvensis), cocklebur (common cocklebur, Xanthium strumarium), morningglory (Ipomoea coccinea), nightshade (eastern black nightshade, Solanum ptycanthum), kochia (Kochia scoparia), nutsedge, yellow (yellow nutsedge, Cyperus esculentus), johnsongrass (Sorghum halepense), smartweed (ladysthumb smartweed, Polygonum persicaria), and beggarticks (hairy beggarticks, Bidens pilosa), were planted into a silt loam soil and treated preemergence with test chemicals formulated in a non-phytotoxic solvent mixture which included a surfactant. At the same time, plants selected from these crop and weed species and also pigweed (Amaranthus retroflexus), waterhemp_RES1 (ALS/Triazine resistant common waterhemp, Amaranthus rudis) and waterhemp_RES2 (ALS/HPPD resistant common waterhemp, Amaranthus rudis) were planted in pots containing a planting medium comprising spaghnum peat moss, vermiculite, wetting agent and starter nutrients treated with postemergence applications of some of the test chemicals formulated in the same manner. Plants ranged in height from 2 to 18 cm for postemergence treatments (1- to 4-leaf stage).
as §2, with “greenhouse” for “controlled growth environment”, “days,” for “days”, “E,” for “D,”

[7] = system: poinsettia, wild (wild poinsettia, Euphorbia heterophylla); experiment: Test F pre-/postemergence: poinsettia, wild; details: Preemergence
Excerpt: as §4
as §2, with “greenhouse” for “controlled growth environment”, “days,” for “days”, “E,” for “D,”

[8] = Postemergence, 31 g ai/ha, scale 0 to 100 (0 no effect, 100 complete control)
[9] = Postemergence, 62 g ai/ha, scale 0 to 100 (0 no effect, 100 complete control)
[10] = Postemergence, 125 g ai/ha, scale 0 to 100, 0 no effect, 100 complete control
[11] = Postemergence, 250 g ai/ha, scale 0 to 100 (0 no effect, 100 complete control)
[12] = Postemergence, 16 g ai/ha, scale 0 to 100
[13] = Flood (flooded paddy test), 125 g ai/ha, visual rating after 13 to 15 days
[14] = Flood (flooded paddy test), 250 g ai/ha, visual rating after 13 to 15 days
[15] = Preemergence, 31 g ai/ha, scale 0 to 100, 0 no effect, 100 complete control
[16] = Preemergence, 62 g ai/ha, scale 0 to 100
[17] = Preemergence, 125 g ai/ha, scale 0 to 100
[18] = Preemergence, 250 g ai/ha, scale 0 to 100
[19] = Preemergence, 16 g ai/ha, scale 0 to 100, 0 no effect, 100 complete control
[20] = 16 g ai/ha, scale 0 to 100, 0 no effect, 100 complete control
[21] = 31 g ai/ha, scale 0 to 100, 0 no effect, 100 complete control

## Cc1nn(-c2ccc(C(F)(F)F)cn2)nc1Oc1ccnc(C(F)(F)F)c1 [Compound 23]
[1]; [8]
  Plant response rating: Foxtail, Green: 15
[1]; [9]
  Plant response rating: Foxtail, Green: 20
[1]; [10]
  Plant response rating: Foxtail, Green: 25
[1]; [11]
  Plant response rating: Foxtail, Green: 25
[1]; [12]
  Plant response rating, Foxtail, Green: 15
[2]; [8]
  Plant response rating: Oilseed Rape: 50
[2]; [9]
  Plant response rating: Oilseed Rape: 75
[2]; [10]
  Plant response rating: Oilseed Rape: 85
[2]; [11]
  Plant response rating: Oilseed Rape: 95
[2]; [12]
  Plant response rating, Oilseed Rape: 50
[3]; [8]
  Plant response rating: Galium: 30
[3]; [9]
  Plant response rating: Galium: 50
[3]; [10]
  Plant response rating: Galium: 70
[3]; [11]
  Plant response rating: Galium: 90
[3]; [12]
  Plant response rating, Galium: 25
[4]; [8]
  Plant response rating: Pigweed: 50
[4]; [9]
  Plant response rating: Pigweed: 80
[4]; [10]
  Plant response rating: Pigweed: 95
[4]; [11]
  Plant response rating: Pigweed: 100
[4]; [12]
  Plant response rating, Pigweed: 50
[5]; Flood (flooded paddy test), 62 g ai/ha, visual rating after 13 to 15 days
  Plant response rating, Barnyardgrass: 0
[5]; [13]
  Plant response rating, Barnyardgrass: 20
[5]; [14]
  Plant response rating, Barnyardgrass: 25
[5]; Flood, 31 g ai/ha
  Plant response rating, Barnyardgrass: 0

## Cc1nn(-c2ccc(C(F)(F)F)cn2)nc1Cc1cccc(C(F)(F)F)c1 [Compound 106]
[1]; [8]
  Plant response rating: Foxtail, Green: 10
[1]; [9]
  Plant response rating: Foxtail, Green: 20
[1]; [10]
  Plant response rating: Foxtail, Green: 30
[1]; [11]
  Plant response rating: Foxtail, Green: 40
[1]; [12]
  Plant response rating, Foxtail, Green: 0
[1]; [15]
  Plant response rating, Foxtail, Green: 0
[1]; [16]
  Plant response rating, Foxtail, Green: 0
[1]; [17]
  Plant response rating, Foxtail, Green: 0
[1]; [18]
  Plant response rating, Foxtail, Green: 100
[2]; [8]
  Plant response rating: Oilseed Rape: 10
[2]; [9]
  Plant response rating: Oilseed Rape: 10
[2]; [10]
  Plant response rating: Oilseed Rape: 80
[2]; [11]
  Plant response rating: Oilseed Rape: 95
[2]; [12]
  Plant response rating, Oilseed Rape: 10
[2]; [15]
  Plant response rating, Oilseed Rape: 10
[2]; [16]
  Plant response rating, Oilseed Rape: 10
[2]; [17]
  Plant response rating, Oilseed Rape: 10
[2]; [18]
  Plant response rating, Oilseed Rape: 20
[3]; [8]
  Plant response rating: Galium: 40
[3]; [9]
  Plant response rating: Galium: 40
[3]; [10]
  Plant response rating: Galium: 40
[3]; [11]
  Plant response rating: Galium: 60
[3]; [12]
  Plant response rating, Galium: 20
[3]; [15]
  Plant response rating, Galium: 0
[3]; [16]
  Plant response rating, Galium: 0
[3]; [17]
  Plant response rating, Galium: 40
[3]; [18]
  Plant response rating, Galium: 80
[4]; [8]
  Plant response rating: Pigweed: 50
[4]; [9]
  Plant response rating: Pigweed: 60
[4]; [10]
  Plant response rating: Pigweed: 90
[4]; [11]
  Plant response rating: Pigweed: 90
[4]; [12]
  Plant response rating, Pigweed: 10
[4]; [15]
  Plant response rating, Pigweed: 0
[4]; [16]
  Plant response rating, Pigweed: 0
[4]; [17]
  Plant response rating, Pigweed: 20
[4]; [18]
  Plant response rating, Pigweed: 40
[5]; [13]
  Plant response rating, Barnyardgrass: 20
[5]; [14]
  Plant response rating, Barnyardgrass: 40
[5]; Flood, 31 g ai/ha
  Plant response rating, Barnyardgrass: 0
[5]; Flood, 62 g ai/ha
  Plant response rating, Barnyardgrass: 0

## Cc1nn(-c2ccc(C(F)(F)F)cc2)nc1Oc1ccnc(C(F)(F)F)c1 [Compound 120]
[1]; [8]
  Plant response rating: Foxtail, Green: 15
[1]; [9]
  Plant response rating: Foxtail, Green: 80
[1]; [10]
  Plant response rating: Foxtail, Green: 95
[1]; [11]
  Plant response rating: Foxtail, Green: 100
[1]; [12]
  Plant response rating, Foxtail, Green: 5
[1]; [19]
  Plant response rating, Foxtail, Green: 70
[1]; [15]
  Plant response rating, Foxtail, Green: 100
[1]; [16]
  Plant response rating, Foxtail, Green: 100
[1]; [17]
  Plant response rating, Foxtail, Green: 100
[1]; [18]
  Plant response rating, Foxtail, Green: 100
[2]; [8]
  Plant response rating: Oilseed Rape: 50
[2]; [9]
  Plant response rating: Oilseed Rape: 80
[2]; [10]
  Plant response rating: Oilseed Rape: 90
[2]; [11]
  Plant response rating: Oilseed Rape: 98
[2]; [12]
  Plant response rating, Oilseed Rape: 20
[2]; [19]
  Plant response rating, Oilseed Rape: 0
[2]; [15]
  Plant response rating, Oilseed Rape: 10
[2]; [16]
  Plant response rating, Oilseed Rape: 10
[2]; [17]
  Plant response rating, Oilseed Rape: 30
[2]; [18]
  Plant response rating, Oilseed Rape: 70
[3]; [8]
  Plant response rating: Galium: 60
[3]; [9]
  Plant response rating: Galium: 70
[3]; [10]
  Plant response rating: Galium: 98
[3]; [11]
  Plant response rating: Galium: 100
[3]; [12]
  Plant response rating, Galium: 50
[3]; [19]
  Plant response rating, Galium: 0
[3]; [15]
  Plant response rating, Galium: 15
[3]; [16]
  Plant response rating, Galium: 65
[3]; [17]
  Plant response rating, Galium: 100
[3]; [18]
  Plant response rating, Galium: 100
[4]; [8]
  Plant response rating: Pigweed: 90
[4]; [9]
  Plant response rating: Pigweed: 90
[4]; [10]
  Plant response rating: Pigweed: 100
[4]; [11]
  Plant response rating: Pigweed: 100
[4]; [12]
  Plant response rating, Pigweed: 0
[4]; [19]
  Plant response rating, Pigweed: 30
[4]; [15]
  Plant response rating, Pigweed: 100
[4]; [16]
  Plant response rating, Pigweed: 100
[4]; [17]
  Plant response rating, Pigweed: 100
[4]; [18]
  Plant response rating, Pigweed: 100
[5]; [13]
  Plant response rating, Barnyardgrass: 80
[5]; [14]
  Plant response rating, Barnyardgrass: 80
[5]; Flood, 62 g ai/ha
  Plant response rating, Barnyardgrass: 65

## COc1nn(-c2cccc(F)c2)nc1Cc1ccnc(C(F)(F)F)c1 [Compound 139]
[6]; [20]
  Plant response rating, Barnyardgrass: 0
[6]; [21]
  Plant response rating, Barnyardgrass: 10
[6]; 62 g ai/ha, scale 0 to 100
  Plant response rating, Barnyardgrass: 10
[6]; 125 g ai/ha, scale 0 to 100
  Plant response rating, Barnyardgrass: 10
[6]; 250 g ai/ha, scale 0 to 100
  Plant response rating, Barnyardgrass: 98
[7]; [20]
  Plant response rating, Poinsettia, Wild: 0
[7]; [21]
  Plant response rating, Poinsettia, Wild: 20
[7]; 125 g ai/ha, scale 0 to 100
  Plant response rating, Poinsettia, Wild: 75
[7]; 250 g ai/ha, scale 0 to 100
  Plant response rating, Poinsettia, Wild: 80

## Cc1nn(-c2ccc(F)cc2F)nc1Oc1ccnc(C(F)(F)F)c1 [Compound 146]
[6]; [20]
  Plant response rating, Barnyardgrass: 0
[6]; [21]
  Plant response rating, Barnyardgrass: 0
[6]; 62 g ai/ha, scale 0 to 100
  Plant response rating, Barnyardgrass: 10
[6]; 125 g ai/ha, scale 0 to 100
  Plant response rating, Barnyardgrass: 10
[6]; 250 g ai/ha, scale 0 to 100
  Plant response rating, Barnyardgrass: 20
[7]; [20]
  Plant response rating, Poinsettia, Wild: 20
[7]; [21]
  Plant response rating, Poinsettia, Wild: 20
[7]; 125 g ai/ha, scale 0 to 100
  Plant response rating, Poinsettia, Wild: 40
[7]; 250 g ai/ha, scale 0 to 100
  Plant response rating, Poinsettia, Wild: 40

— patent publication US9302999B2, “Substituted triazoles as herbicides” (E. I. DU PONT DE NEMOURS AND COMPANY, priority 2012, dated 2016)
